# Read-outs that look alike come from different tables or passages of the source.
# How the values were obtained:
# SNB-19 [1] = conditions: glioblastoma SNB-19, read-out: IC50 ± SD SNB-19, cited from earlier work
# C-32 [2] = conditions: melanoma C-32, read-out: IC50 ± SD C-32, cited from earlier work
# MDA-MB-231 [3] = conditions: breast cancer MDA-MB-231, read-out: IC50 ± SD MDA-MB-231, cited from earlier work
# HFF-1 [4] = conditions: normal fibroblasts HFF-1, cited from earlier work; for IC50 ± SD HFF-1: Neg: negative in the concentration used, footnote a; for IC50: footnote b, read-out: IC50 ± SD HFF-1
# SNB-19 [5] = assay: antiproliferative activity (WST-1), glioblastoma SNB-19; format: cell-based, human; conditions: for SI (IC50 HFF-1/IC50 cancer line) SNB-19: selectivity index, HFF-1 vs SNB-19
# Method: (§1) Biological activity of the tested compounds was assessed in vitro using cultured cell lines: melanoma C-32 (ATCC, Rockville, MD, USA), glioblastoma SNB-19 (DSMZ, Braunschweig, Germany), breast cancer MDA-MB-231 (ATCC, Rockville, MD, USA), and normal human fibroblasts derived from foreskin HFF-1 (ATCC, Rockville, MD, USA). Cell cultures were maintained using DMEM (Lonza, Basel, Switzerland) supplemented with 10% fetal bovine serum (FBS) (Biological Industries Cromwell, CT, USA) and a mixture of penicillin (10,000 U/mL) and streptomycin (10 mg/mL) (Lonza, Basel, Switzerland).
# (§2) Cells were cultured using 96-well plates (Nunc Thermo Fisher Scientific, Waltham, MA, USA). Cells were seeded (5 × 10^3 cells/well) and incubated for 24 h in a standard incubator (37 °C, 5% CO2, relative humidity 95%). Subsequently, the medium was replaced with a fresh aliquot containing an examined compound (0.01; 0.05; 0.1; 0.5; 1; 5; 10; 50; 100 µg/mL), and cells were further incubated for another 72 h. Upon the conclusion of incubation, a CVDE test (Aniara, West Chester, OH, USA) using crystal violet was performed to assess the relative number of cells in the culture. A WST-1 test (Roche) was performed to examine the metabolic activity of cells and test for the presence of LDH in the medium (Roche Diagnostics GmbH, Mannheim, Germany), allowing for the assessment of the relative number of dead cells (i.e., cytotoxicity of the examined compound). UVM340 microplate readers (BIOGENET, Józefów, Poland) were used to read absorbance values.
# (§3) WST-1 colorimetric assay for cell proliferation (Roche Diagnostics GmbH, Mannheim, Germany, reagent kit cat. 11644807001) is based on the viable cells’ ability to cleave the bright red-colored stable tetrazolium salt WST-1 to dark red soluble formazan. This bioreduction occurs under the influence of mitochondrial dehydrogenases (depends mostly on production of NAD(P)H in viable cells). The amount of formazan dye formed correlates directly with the number of metabolically active cells in the culture and is measured by absorbance (λ = 450 nm) following 1 h incubation of cells with the reagent.
# MDA-MB-231 [6] = assay: antiproliferative activity (WST-1), breast cancer MDA-MB-231; format: cell-based, human; conditions: for SI (IC50 HFF-1/IC50 cancer line) MDA-MB-231: selectivity index, HFF-1 vs MDA-MB-231
# Method: as §1, §2, §3
# C-32 [7] = assay: antiproliferative activity (WST-1), melanoma C-32; format: cell-based, human; conditions: for SI (IC50 HFF-1/IC50 cancer line) C-32: selectivity index, HFF-1 vs C-32
# Method: as §1, §2, §3
# HFF-1 [8] = assay: antiproliferative activity (WST-1), normal fibroblasts HFF-1; format: cell-based, human; conditions: normal fibroblasts HFF-1, 72 h, Neg: negative in the concentration used, read-out: IC50 ± SD HFF-1
# Method: as §1, §2, §3
SMILES,IC50 (SNB-19 [1]; footnote a),IC50 (C-32 [2]; footnote a),IC50 (MDA-MB-231 [3]; footnote a),IC50 ± SD HFF-1 (HFF-1 [4]),SI (IC50 HFF-1/IC50 cancer line) SNB-19 (SNB-19 [5]),SI (IC50 HFF-1/IC50 cancer line) C-32 (C-32 [7]),other results
CCCOC1=C(Cl)C(=O)c2cccnc2C1=O [Compound 7],0.4 ± 0.1 µM,0.2 ± 0.1 µM,22.4 ± 2.7 µM,Neg,,,
C=CCOC1=C(Cl)C(=O)c2cccnc2C1=O [Compound 8],0.3 ± 0.1 µM,0.28 ± 0.1 µM,17.2 ± 2.8 µM,Neg,,,
C#CCOC1=C(Cl)C(=O)c2cccnc2C1=O [Compound 9],,,,,0.16,10.31,IC50 (SNB-19 [1]; footnote b): 20.4 ± 0.2 µM; IC50 (C-32 [2]; footnote b): 0.32 ± 0.1 µM; IC50 (MDA-MB-231 [3]; footnote b): 21.4 ± 3.4 µM; SI (IC50 HFF-1/IC50 cancer line) MDA-MB-231 (MDA-MB-231 [6]): 0.15; IC50 (HFF-1 [4]): 3.3 ± 0.3 µM
CCCOC1=C(OCCC)C(=O)c2ncccc2C1=O [Compound 16],0.7 ± 0.02 µM,1.1 ± 0.1 µM,3 ± 0.3 µM,Neg,,,
C=CCOC1=C(OCC=C)C(=O)c2ncccc2C1=O [Compound 17],0.2 ± 0.1 µM,1.5 ± 0.1 µM,12.6 ± 2.7 µM,Neg,,,
C#CCOC1=C(OCC#C)C(=O)c2ncccc2C1=O [Compound 18],,,,,0.58,50.40,IC50 (SNB-19 [1]; footnote b): 21.7 ± 1.1 µM; IC50 (C-32 [2]; footnote b): 0.3 ± 0.1 µM; IC50 (MDA-MB-231 [3]; footnote b): 1.8 ± 0.1 µM; SI (IC50 HFF-1/IC50 cancer line) MDA-MB-231 (MDA-MB-231 [6]): 7.00; IC50 (HFF-1 [4]): 12.6 ± 0.9 µM
"N.N.[Cl][Pt][Cl] [cisplatin, reference compound]",,,,,0.48,0.55,"IC50 (HFF-1 [8]): 9.1 ± 1.8 µM; IC50 (SNB-19 [5]; glioblastoma SNB-19, 72 h, WST-1, Neg: negative in the concentration used, read-out: IC50 ± SD SNB-19): 18.9 ± 0.4 µM; IC50 (MDA-MB-231 [6]; breast cancer MDA-MB-231, 72 h, WST-1, Neg: negative in the concentration used, read-out: IC50 ± SD MDA-MB-231): 25.5 ± 0.2 µM; IC50 (C-32 [7]; melanoma C-32, 72 h, WST-1, Neg: negative in the concentration used, read-out: IC50 ± SD C-32): 16.4 ± 1.2 µM"

# Reference: publication PMC6155387, “Alkoxy and Enediyne Derivatives Containing 1,4-Benzoquinone Subunits—Synthesis and Antitumor Activity” (Molecules : A Journal of Synthetic Chemistry and Natural …, 2017)
